Results taken from US12077503B2, “Substituted cyclic amides and their use as herbicides” (FMC CORPORATION, priority 2015, dated 2024).

Legend:
Assay type in all cases: in vivo
[1] = system: morningglory (Ipomoea spp.); test: Test A postemergence
Procedure, shortened: (§1)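 Compounds were formulated in a non-phytotoxic solvent mixture with surfactant and applied as a preemergence directed soil spray after seeding, or sprayed postemergence over plants 2 to 10 cm tall at the one- to two-leaf stage. Evaluation after about 10 d compared treated with untreated controls, using a scale from 0 (no effect) to 100 (complete control).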

[2] = system: pigweed (Amaranthus retroflexus); test: Test A postemergence
Procedure, shortened: as §1

corn (Zea mays) [3] = test: Test A postemergence
Procedure, shortened: as §1

[4] = system: giant foxtail (Setaria faberii); test: Test A postemergence
Procedure, shortened: as §1

[5] = system: barnyardgrass (Echinochloa crus-galli); test: Test A postemergence
Procedure, shortened: as §1

[6] = system: crabgrass, large (Digitaria sanguinalis); test: Test A postemergence
Procedure, shortened: as §1

[7] = system: wheat (Triticum aestivum); test: Test A postemergence
Procedure, shortened: as §1

[8] = system: velvetleaf (Abutilon theophrasti); test: Test A postemergence
Procedure, shortened: as §1

[9] = system: morningglory (Ipomoea spp.); test: Test A preemergence; details: for Morningglory plant response rating (0 to 100 scale): Preemergence, 0 is no effect, 100 is complete control; for Plant response rating, Morningglory: 125 g ai/ha, preemergence, 0 to 100 scale (0 no effect, 100 complete control)
Procedure, shortened: as §1

[10] = system: pigweed (Amaranthus retroflexus); test: Test A preemergence; details: for Pigweed plant response rating (0 to 100 scale): Preemergence, 0 is no effect, 100 is complete control; for Plant response rating, Pigweed: 125 g ai/ha, preemergence, 0 to 100 scale (0 no effect, 100 complete control)
corn (Zea mays) [11] = test: Test A preemergence; details: for Corn plant response rating (0 to 100 scale): Preemergence, 0 is no effect, 100 is complete control; for Plant response rating, Corn: 125 g ai/ha, preemergence, 0 to 100 scale (0 no effect, 100 complete control)
Procedure, shortened: as §1

[12] = system: giant foxtail (Setaria faberii); test: Test A preemergence; details: for Foxtail, Giant plant response rating (0 to 100 scale): Preemergence, 0 is no effect, 100 is complete control; for Plant response rating, Foxtail, Giant: 125 g ai/ha, preemergence, 0 to 100 scale (0 no effect, 100 complete control)
Procedure, shortened: as §1

[13] = system: barnyardgrass (Echinochloa crus-galli); test: Test A preemergence; details: for Barnyardgrass plant response rating (0 to 100 scale): Preemergence, 0 is no effect, 100 is complete control; for Plant response rating, Barnyardgrass: 125 g ai/ha, preemergence, 0 to 100 scale (0 no effect, 100 complete control)
Procedure, shortened: as §1

[14] = system: crabgrass, large (Digitaria sanguinalis); test: Test A preemergence; details: for Crabgrass, Large plant response rating (0 to 100 scale): Preemergence, 0 is no effect, 100 is complete control; for Plant response rating, Crabgrass, Large: 125 g ai/ha, preemergence, 0 to 100 scale (0 no effect, 100 complete control)
Procedure, shortened: as §1

[15] = system: wheat (Triticum aestivum); test: Test A preemergence; details: for Wheat plant response rating (0 to 100 scale): Preemergence, 0 is no effect, 100 is complete control; for Plant response rating, Wheat: 125 g ai/ha, preemergence, 0 to 100 scale (0 no effect, 100 complete control)
Procedure, shortened: as §1

[16] = system: velvetleaf (Abutilon theophrasti); test: Test A preemergence; details: for Velvetleaf plant response rating (0 to 100 scale): Preemergence, 0 is no effect, 100 is complete control; for Plant response rating, Velvetleaf: 125 g ai/ha, preemergence, 0 to 100 scale (0 no effect, 100 complete control)
Procedure, shortened: as §1

[17] = system: ducksalad (Heteranthera limosa); test: Test B flooded paddy test; details: Flood, 0 to 100 scale where 0 is no effect and 100 is complete control, 13 to 15 d
Procedure, shortened: (§2)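 Flooding to 3 cm over soil accompanied treatment, which consisted of adding compound to the standing water around 2-leaf plants; depth was then maintained. Visual assessment versus controls followed at 13 to 15 d (scale 0–100, 0 meaning no effect).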

[18] = system: barnyardgrass (Echinochloa crus-galli); test: Test B flooded paddy test; details: Flood, 0 to 100 scale where 0 is no effect and 100 is complete control, 13 to 15 d
Procedure, shortened: as §2

[19] = system: sedge, umbrella (small-flower umbrella sedge, Cyperus difformis); test: Test B flooded paddy test; details: Flood, 0 to 100 scale where 0 is no effect and 100 is complete control, 13 to 15 d
Procedure, shortened: as §2

rice (Oryra sativa) = test: Test B flooded paddy test; details: Flood, 0 to 100 scale where 0 is no effect and 100 is complete control, 13 to 15 d
Procedure, shortened: as §2

[20] = 1000 g ai/ha, postemergence, 0 to 100 scale, 0 no effect, 100 complete control
[21] = 500 g ai/ha, postemergence, 0 to 100 scale, 0 no effect, 100 complete control
[22] = Postemergence, 125 g ai/ha, visual injury, 0 to 100 scale (0 no effect, 100 complete control), approx. 10 d

`Nc1c(NC(=O)C2C(=O)NCC2c2ccc(F)c(F)c2)ccc(F)c1F` (racemic) [Compound 358] was tested. Which “Plant response rating, Morningglory” value [1, 20] did it give?
Its value is 0.

And the “Plant response rating, Pigweed” value [2, 20]?
The value was 0.

And the “Plant response rating, Corn” value (corn (Zea mays) [3]; [20])?
Its value is 0.

And the “Plant response rating, Foxtail, Giant” value [4, 20]?
Its value is 30.

And the “Plant response rating, Barnyardgrass” value [5, 20]?
Its value is 0.

And the “Plant response rating, Crabgrass, Large” value [6, 20]?
The value was 40.

And the “Plant response rating, Wheat” value [7, 20]?
Its value is 0.

And the “Plant response rating, Velvetleaf” value [8, 20]?
Its value is 0.

What about the “Morningglory plant response rating (0 to 100 scale)” value (“Morningglory plant response rating” for short) ([9]; 1000 g ai/ha) of the same compound?
Its value is 0.

And the “Pigweed plant response rating (0 to 100 scale)” value (“Pigweed plant response rating” for short) ([10]; 1000 g ai/ha)?
The value was 0.

What about the “Corn plant response rating (0 to 100 scale)” value (“Corn plant response rating” below) (corn (Zea mays) [11]; 1000 g ai/ha) of the same compound?
The value was 0.

What about the “Foxtail, Giant plant response rating (0 to 100 scale)” value (“Foxtail, Giant plant response rating” below) ([12]; 1000 g ai/ha) of the same compound?
The value was 0.

And the “Barnyardgrass plant response rating (0 to 100 scale)” value (from here on “Barnyardgrass plant response rating”) ([13]; 1000 g ai/ha)?
The value was 0.

And the “Crabgrass, Large plant response rating (0 to 100 scale)” value (from here on “Crabgrass, Large plant response rating”) ([14]; 1000 g ai/ha)?
Its value is 50.

And the “Wheat plant response rating (0 to 100 scale)” value (“Wheat plant response rating” for short) ([15]; 1000 g ai/ha)?
The value was 0.

And the “Velvetleaf plant response rating (0 to 100 scale)” value (from here on “Velvetleaf plant response rating”) ([16]; 1000 g ai/ha)?
Its value is 0.

With `Cn1nccc1NC(=O)C1C(=O)NCC1c1ccc(F)c(F)c1` (racemic) [Compound 362] as the compound, how does the “Plant response rating, Ducksalad” value ([17]; 250 g ai/ha) read?
Its value is 0.

What about the “Plant response rating, Barnyardgrass” value ([18]; 250 g ai/ha) of the same compound?
The value was 0.

What about the “Plant response rating, Sedge, Umbrella” value ([19]; 250 g ai/ha) of the same compound?
Its value is 0.

What about the “Plant response rating, Rice” value (rice (Oryra sativa); 250 g ai/ha) of the same compound?
Its value is 0.

What about the “Plant response rating, Morningglory” value [1, 21] of the same compound?
Its value is 0.

What about the “Plant response rating, Morningglory” value [1, 22] of the same compound?
The value was 0.

And the “Plant response rating, Pigweed” value [2, 21]?
Its value is 0.

And the “Plant response rating, Pigweed” value [2, 22]?
The value was 0.

And the “Plant response rating, Corn” value (corn (Zea mays) [3]; [21])?
The value was 0.

What about the “Plant response rating, Corn” value (corn (Zea mays) [3]; [22]) of the same compound?
The value was 0.

What about the “Plant response rating, Foxtail, Giant” value [4, 21] of the same compound?
Its value is 0.

What about the “Plant response rating, Foxtail, Giant” value [4, 22] of the same compound?
Its value is 0.

What about the “Plant response rating, Barnyardgrass” value [5, 21] of the same compound?
Its value is 0.

And the “Plant response rating, Barnyardgrass” value [5, 22]?
Its value is 0.

And the “Plant response rating, Crabgrass, Large” value [6, 21]?
The value was 0.

What about the “Plant response rating, Crabgrass, Large” value [6, 22] of the same compound?
The value was 0.

And the “Plant response rating, Wheat” value [7, 21]?
Its value is 0.

What about the “Plant response rating, Wheat” value [7, 22] of the same compound?
Its value is 0.

And the “Plant response rating, Velvetleaf” value [8, 21]?
The value was 0.

And the “Plant response rating, Velvetleaf” value [8, 22]?
The value was 0.

What about the “Plant response rating, Morningglory” value [9] of the same compound?
The value was 0.

What about the “Morningglory plant response rating” value ([9]; 500 g ai/ha) of the same compound?
The value was 0.

What about the “Plant response rating, Pigweed” value [10] of the same compound?
Its value is 0.

And the “Pigweed plant response rating” value ([10]; 500 g ai/ha)?
The value was 0.

What about the “Plant response rating, Corn” value (corn (Zea mays) [11]) of the same compound?
The value was 0.

And the “Corn plant response rating” value (corn (Zea mays) [11]; 500 g ai/ha)?
Its value is 0.

And the “Plant response rating, Foxtail, Giant” value [12]?
Its value is 0.

What about the “Foxtail, Giant plant response rating” value ([12]; 500 g ai/ha) of the same compound?
Its value is 0.

What about the “Plant response rating, Barnyardgrass” value [13] of the same compound?
The value was 0.

What about the “Barnyardgrass plant response rating” value ([13]; 500 g ai/ha) of the same compound?
Its value is 0.

And the “Plant response rating, Crabgrass, Large” value [14]?
Its value is 0.

What about the “Crabgrass, Large plant response rating” value ([14]; 500 g ai/ha) of the same compound?
The value was 0.

And the “Plant response rating, Wheat” value [15]?
Its value is 0.

What about the “Wheat plant response rating” value ([15]; 500 g ai/ha) of the same compound?
The value was 0.

And the “Plant response rating, Velvetleaf” value [16]?
The value was 0.

What about the “Velvetleaf plant response rating” value ([16]; 500 g ai/ha) of the same compound?
Its value is 0.

How did the “Plant response rating, Ducksalad” value ([17]; 1000 g ai/ha) turn out when `O=C1NCC(c2ccc(-c3ccccc3)cc2)C1C(=O)Nc1ccccc1F` (racemic) [Compound 365] was run?
Its value is 0.

What about the “Plant response rating, Barnyardgrass” value ([18]; 1000 g ai/ha) of the same compound?
Its value is 0.

What about the “Plant response rating, Sedge, Umbrella” value ([19]; 1000 g ai/ha) of the same compound?
Its value is 0.

What about the “Plant response rating, Rice” value (rice (Oryra sativa); 1000 g ai/ha) of the same compound?
Its value is 0.

What about the “Plant response rating, Morningglory” value [1, 21] of the same compound?
Its value is 0.

What about the “Plant response rating, Morningglory” value [1, 22] of the same compound?
Its value is 0.

What about the “Plant response rating, Pigweed” value [2, 21] of the same compound?
Its value is 0.

What about the “Plant response rating, Pigweed” value [2, 22] of the same compound?
The value was 0.

What about the “Plant response rating, Corn” value (corn (Zea mays) [3]; [21]) of the same compound?
Its value is 0.

And the “Plant response rating, Corn” value (corn (Zea mays) [3]; [22])?
Its value is 0.

And the “Plant response rating, Foxtail, Giant” value [4, 21]?
Its value is 0.

What about the “Plant response rating, Foxtail, Giant” value [4, 22] of the same compound?
The value was 0.

And the “Plant response rating, Barnyardgrass” value [5, 21]?
The value was 0.

What about the “Plant response rating, Barnyardgrass” value [5, 22] of the same compound?
Its value is 0.

What about the “Plant response rating, Crabgrass, Large” value [6, 21] of the same compound?
Its value is 0.

And the “Plant response rating, Crabgrass, Large” value [6, 22]?
Its value is 0.

What about the “Plant response rating, Wheat” value [7, 21] of the same compound?
The value was 0.

What about the “Plant response rating, Wheat” value [7, 22] of the same compound?
Its value is 0.

What about the “Plant response rating, Velvetleaf” value [8, 21] of the same compound?
The value was 0.

What about the “Plant response rating, Velvetleaf” value [8, 22] of the same compound?
The value was 0.

And the “Plant response rating, Morningglory” value [9]?
The value was 0.

And the “Morningglory plant response rating” value ([9]; 500 g ai/ha)?
The value was 0.

What about the “Plant response rating, Pigweed” value [10] of the same compound?
The value was 0.

What about the “Pigweed plant response rating” value ([10]; 500 g ai/ha) of the same compound?
Its value is 0.

What about the “Plant response rating, Corn” value (corn (Zea mays) [11]) of the same compound?
Its value is 0.

And the “Corn plant response rating” value (corn (Zea mays) [11]; 500 g ai/ha)?
The value was 0.

What about the “Plant response rating, Foxtail, Giant” value [12] of the same compound?
Its value is 0.

What about the “Foxtail, Giant plant response rating” value ([12]; 500 g ai/ha) of the same compound?
Its value is 0.

And the “Plant response rating, Barnyardgrass” value [13]?
The value was 0.

And the “Barnyardgrass plant response rating” value ([13]; 500 g ai/ha)?
Its value is 0.

What about the “Plant response rating, Crabgrass, Large” value [14] of the same compound?
Its value is 0.

And the “Crabgrass, Large plant response rating” value ([14]; 500 g ai/ha)?
The value was 0.

What about the “Plant response rating, Wheat” value [15] of the same compound?
Its value is 0.

What about the “Wheat plant response rating” value ([15]; 500 g ai/ha) of the same compound?
Its value is 0.

And the “Plant response rating, Velvetleaf” value [16]?
The value was 0.

And the “Velvetleaf plant response rating” value ([16]; 500 g ai/ha)?
Its value is 0.
